“Also recorded” adds a separate entry of the source.

Data set [1] deals with T1, TRPV4 (Homo sapiens, UniProt Q9HBA0).
T1 construct: Transient increases in intracellular calcium were detected quickly after force application in HUVE cells treated with control siRNA; endogenous in cells; host or cells: HUVE cells (ATCC) treated with control or CD98 siRNA
To be noted: human lung-on-a-chip microdevice, IL2-induced; cited from earlier work.

The target of data set [2] is T2, TRPV4 (Rattus norvegicus, UniProt Q9ERZ8).
T2 construct: host or cells: rats, in vivo
T2 sequence (Q9ERZ8 whole entry): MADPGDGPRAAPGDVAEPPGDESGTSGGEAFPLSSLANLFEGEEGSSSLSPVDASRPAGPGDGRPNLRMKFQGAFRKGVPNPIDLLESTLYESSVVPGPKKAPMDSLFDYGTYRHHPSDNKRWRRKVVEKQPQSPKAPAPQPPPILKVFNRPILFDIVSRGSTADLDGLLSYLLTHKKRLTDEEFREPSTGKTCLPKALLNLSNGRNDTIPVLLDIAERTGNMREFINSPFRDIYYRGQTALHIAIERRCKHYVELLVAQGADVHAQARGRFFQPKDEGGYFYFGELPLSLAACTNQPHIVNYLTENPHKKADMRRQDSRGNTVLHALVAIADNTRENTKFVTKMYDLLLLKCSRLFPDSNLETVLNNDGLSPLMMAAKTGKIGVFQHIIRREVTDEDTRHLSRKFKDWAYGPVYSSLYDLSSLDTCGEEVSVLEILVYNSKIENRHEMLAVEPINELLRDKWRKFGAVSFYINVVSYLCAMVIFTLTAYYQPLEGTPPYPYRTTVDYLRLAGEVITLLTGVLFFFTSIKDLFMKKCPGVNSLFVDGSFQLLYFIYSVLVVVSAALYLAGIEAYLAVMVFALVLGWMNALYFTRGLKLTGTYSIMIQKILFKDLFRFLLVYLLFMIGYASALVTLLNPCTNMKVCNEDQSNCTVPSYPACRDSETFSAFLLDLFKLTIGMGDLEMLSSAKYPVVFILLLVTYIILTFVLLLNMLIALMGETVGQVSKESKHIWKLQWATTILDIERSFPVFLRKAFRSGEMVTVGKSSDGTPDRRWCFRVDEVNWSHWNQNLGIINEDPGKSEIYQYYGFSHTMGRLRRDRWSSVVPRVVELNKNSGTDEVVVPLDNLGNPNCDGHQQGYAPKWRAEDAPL
The note with it: rats; cited from earlier work.

The target of data set [3] is T3, TRPV4 (Mus musculus, UniProt Q9EPK8).
T3 construct: host or cells: mice, in vivo
T3 sequence (Q9EPK8 whole entry): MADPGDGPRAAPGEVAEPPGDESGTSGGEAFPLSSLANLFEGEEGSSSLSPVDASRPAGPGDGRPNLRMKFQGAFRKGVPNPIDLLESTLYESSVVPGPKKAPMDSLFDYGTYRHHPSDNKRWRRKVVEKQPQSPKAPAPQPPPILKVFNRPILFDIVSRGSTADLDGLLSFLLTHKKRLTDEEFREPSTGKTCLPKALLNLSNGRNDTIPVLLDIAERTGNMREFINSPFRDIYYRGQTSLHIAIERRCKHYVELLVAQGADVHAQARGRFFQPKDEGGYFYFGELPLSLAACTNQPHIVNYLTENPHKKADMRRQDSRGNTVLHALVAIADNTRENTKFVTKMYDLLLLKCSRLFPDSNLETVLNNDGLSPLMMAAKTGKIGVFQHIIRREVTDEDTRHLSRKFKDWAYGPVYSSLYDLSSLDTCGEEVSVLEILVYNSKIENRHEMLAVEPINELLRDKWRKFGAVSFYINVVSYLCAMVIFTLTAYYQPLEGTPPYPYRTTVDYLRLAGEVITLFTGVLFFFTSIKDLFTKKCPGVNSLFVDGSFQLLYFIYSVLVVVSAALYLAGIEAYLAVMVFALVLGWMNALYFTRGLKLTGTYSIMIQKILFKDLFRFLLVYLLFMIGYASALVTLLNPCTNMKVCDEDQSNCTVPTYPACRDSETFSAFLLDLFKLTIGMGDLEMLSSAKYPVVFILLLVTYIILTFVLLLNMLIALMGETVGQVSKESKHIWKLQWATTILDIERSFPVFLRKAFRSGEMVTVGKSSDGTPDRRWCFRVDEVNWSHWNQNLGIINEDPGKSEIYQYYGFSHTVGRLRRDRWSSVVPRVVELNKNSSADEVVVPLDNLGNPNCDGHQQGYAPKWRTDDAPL
To be noted: mice; cited from earlier work.

For data set [4], the target named is T4, TRPV4 (Canis lupus familiaris, UniProt A0A8I3PAV3).
T4 construct: host or cells: dog, in vivo
T4 sequence (A0A8I3PAV3 1-828): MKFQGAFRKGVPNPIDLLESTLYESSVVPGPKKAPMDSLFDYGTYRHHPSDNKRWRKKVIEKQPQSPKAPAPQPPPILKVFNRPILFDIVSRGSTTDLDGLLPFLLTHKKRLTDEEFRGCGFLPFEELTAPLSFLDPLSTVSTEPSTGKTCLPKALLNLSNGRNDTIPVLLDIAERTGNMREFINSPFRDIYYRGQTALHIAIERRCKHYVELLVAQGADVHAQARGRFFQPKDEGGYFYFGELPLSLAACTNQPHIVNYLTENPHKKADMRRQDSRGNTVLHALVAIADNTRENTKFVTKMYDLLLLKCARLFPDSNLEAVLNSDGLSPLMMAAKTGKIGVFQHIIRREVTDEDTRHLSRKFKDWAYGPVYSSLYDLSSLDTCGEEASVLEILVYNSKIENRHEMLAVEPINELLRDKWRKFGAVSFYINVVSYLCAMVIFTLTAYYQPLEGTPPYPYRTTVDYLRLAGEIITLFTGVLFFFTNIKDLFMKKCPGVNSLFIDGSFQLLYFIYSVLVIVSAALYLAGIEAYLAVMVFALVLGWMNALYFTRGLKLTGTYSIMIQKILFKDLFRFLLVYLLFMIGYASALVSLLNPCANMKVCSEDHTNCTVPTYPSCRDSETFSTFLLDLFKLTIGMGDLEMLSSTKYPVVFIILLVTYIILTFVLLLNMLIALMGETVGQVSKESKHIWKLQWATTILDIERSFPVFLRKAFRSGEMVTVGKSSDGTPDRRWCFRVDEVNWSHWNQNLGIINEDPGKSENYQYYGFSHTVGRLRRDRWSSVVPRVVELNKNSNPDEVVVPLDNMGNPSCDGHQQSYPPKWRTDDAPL
The note with it: dog; cited from earlier work.

Data set [5] deals with T5, binding between β1-integrin and TRPV4 (Homo sapiens, UniProt P05556+Q9HBA0).
T5 construct: endogenous in cells; host or cells: HEK293T cells (ATCC); only the HA-CD98 high homology domain is transfected
T5 sequence (Q9HBA0 whole entry, the tested form may be a part): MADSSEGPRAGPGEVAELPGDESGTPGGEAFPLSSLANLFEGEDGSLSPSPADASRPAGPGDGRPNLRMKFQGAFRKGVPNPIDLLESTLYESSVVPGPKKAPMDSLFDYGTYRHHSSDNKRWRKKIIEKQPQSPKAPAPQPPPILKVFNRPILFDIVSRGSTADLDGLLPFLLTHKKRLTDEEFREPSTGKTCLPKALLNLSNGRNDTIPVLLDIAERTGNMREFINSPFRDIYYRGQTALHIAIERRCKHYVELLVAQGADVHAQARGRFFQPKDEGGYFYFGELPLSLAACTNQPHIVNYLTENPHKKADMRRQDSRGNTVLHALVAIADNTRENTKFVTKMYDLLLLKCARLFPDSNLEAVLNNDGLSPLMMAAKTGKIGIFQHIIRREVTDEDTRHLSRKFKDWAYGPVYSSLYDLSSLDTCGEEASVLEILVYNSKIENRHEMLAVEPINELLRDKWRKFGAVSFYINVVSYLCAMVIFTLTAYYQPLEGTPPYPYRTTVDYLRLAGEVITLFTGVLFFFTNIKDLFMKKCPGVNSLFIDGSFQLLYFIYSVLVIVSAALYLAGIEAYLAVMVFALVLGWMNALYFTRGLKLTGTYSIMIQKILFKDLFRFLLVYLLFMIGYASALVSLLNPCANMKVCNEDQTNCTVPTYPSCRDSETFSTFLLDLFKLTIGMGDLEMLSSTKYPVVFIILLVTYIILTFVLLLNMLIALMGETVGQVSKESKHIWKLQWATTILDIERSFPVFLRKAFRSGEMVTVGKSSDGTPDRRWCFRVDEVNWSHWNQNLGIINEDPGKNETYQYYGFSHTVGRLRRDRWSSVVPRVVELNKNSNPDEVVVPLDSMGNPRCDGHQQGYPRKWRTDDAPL
T5 sequence (P05556 21-798): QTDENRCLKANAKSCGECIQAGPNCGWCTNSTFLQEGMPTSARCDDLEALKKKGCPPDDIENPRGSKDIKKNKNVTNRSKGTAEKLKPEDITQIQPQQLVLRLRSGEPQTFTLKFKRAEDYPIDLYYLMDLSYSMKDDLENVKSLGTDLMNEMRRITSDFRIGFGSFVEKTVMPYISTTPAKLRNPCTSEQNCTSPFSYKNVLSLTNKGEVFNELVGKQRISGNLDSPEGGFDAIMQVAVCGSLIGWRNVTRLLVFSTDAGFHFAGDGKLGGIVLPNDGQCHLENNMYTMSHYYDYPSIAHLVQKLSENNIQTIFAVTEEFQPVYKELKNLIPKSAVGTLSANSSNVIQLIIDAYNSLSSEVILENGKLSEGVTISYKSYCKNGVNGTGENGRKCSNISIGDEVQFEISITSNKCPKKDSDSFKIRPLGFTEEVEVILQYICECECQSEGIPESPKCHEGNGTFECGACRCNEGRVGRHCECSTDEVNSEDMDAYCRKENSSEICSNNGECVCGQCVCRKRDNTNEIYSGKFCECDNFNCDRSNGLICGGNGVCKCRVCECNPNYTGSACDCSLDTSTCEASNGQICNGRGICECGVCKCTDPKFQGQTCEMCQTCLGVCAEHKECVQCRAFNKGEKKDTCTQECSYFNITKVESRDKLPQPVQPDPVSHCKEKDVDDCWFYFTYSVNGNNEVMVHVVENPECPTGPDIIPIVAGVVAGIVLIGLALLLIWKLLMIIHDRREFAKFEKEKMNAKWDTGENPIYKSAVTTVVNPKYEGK
In words: Immunoprecipitation binding assay in HEK293T cells transfected with HA-linked CD98 high homology domain. The note with it: HEK293T cells, 2.5, 5 μg HA-linked CD98 high homology domain vs HA vector, 24 h. It is filed as cell-based. Here is the method: 2.5, 5 μg HA-linked CD98 high homology domain or 5 μg HA vector was transfected into HEK293T cells, and the binding assay was performed 24 h later. The bottom panel gives the amount of each transgene in total cell lysates of respective transfectants. In the top or the 3rd panel, the lysates were immunoprecipitated with an anti-β1-integrin or TRPV4 antibody, and the amount of TRPV4 or β1-integrin in the precipitates was blotted with each antibodies. The 2nd or the 4th panel gives the amount of β1-integrin or TRPV4 in total cell lysates.
Immunoprecipitation. Cells were extracted in ice-cold TRITON™ buffer (50 mM Tris-HCL, pH 7.4, containing 150 mM NaCl, 1% TRITONX100™, 5 mM EDTA). Cell extracts were centrifuged at 10000 g for 15 min at 4° C. prior to being immunoprecipitated with each antibodies and DYNABEADS™ Magnetic Beads (Invitrogen) at 4° C. Subsequently the beads were isolated by magnet and washed five times with TRITON™ buffer and then were detected by SDS-PAGE and immunoblotting.
As described above, high homology domain of CD98 is important for the binging to either β1-integrin or TRPV4. […] Therefore, CD98 mediates the binding between β1-integrin and TRPV4 at focal adhesion through high homology domain of CD98.

Data set [6] has as its system HUVE cells. Description: Actin rearrangement / cell orientation after 20% uniaxial cyclic strain. The data set is classed as cell-based, human. Here is the method: CD98 involves actin rearrangement on mechanotransduction. To confirm that CD98 translates the mechanical signal from β1-integrin to TRPV4 by mediating the binding, it was examined whether CD98 is required for the actin arrangement induced by cyclic strain. To analyze it, HUVE cells were cultured on flexible fibronectin-coated substrates and subjected to 20% uniaxial cyclic strain using a FlexrCell™ Tension Plus system. […] In contrast, this response was abolished by the treatment with CD98 siRNA (FIG. 5).
(§1) Mechanical strain application, measurement of cell orientation, Calcium Imaging were performed as described (Thodeti et al., 2009)
To confirm that CD98 translates the mechanical signal from β1-integrin to TRPV4 by mediating the binding, it was examined whether CD98 is required for the actin arrangement induced by cyclic strain. To analyze it, HUVE cells were cultured on flexible fibronectin-coated substrates and subjected to 20% uniaxial cyclic strain using a FlexrCell Tension Plus™ system. […] In contrast, this response was abolished by the treatment with CD98 siRNA (FIG. 5).

The target of data set [7] is T1, TRPV4. In words: Calcium imaging: calcium influx by chemical stimulation (4α-PDD). The data set is classed as cell-based. The method, then:
(§2) FIG. 6A depicts a graph of the relative change in cytosolic calcium in response to static stretch (20%, 4 second arrow) in Fluo-4-loaded CE cells treated with control or CD98 siRNA. FIG. 6B depicts a graph of the average relative increases in cytosolic calcium induced by mechanical strain in HUVE cells treated with control or CD98 siRNA. FIG. 6C depicts a graph of the relative change in cytosolic calcium in response to 4α-PDD (10 μM) in Fluo-4-loaded CE cells treated with control or CD98 siRNA. FIG. 6D depicts a graph of the average relative increases in cytosolic calcium induced by chemical strain in HUVE cells treated with control or CD98 siRNA.
(§3) Specific inhibition of mechanical activation of TRPV4 activity. Moreover, TRPV4 is specifically activated by mechanical strain (12). To examine whether CD98 transducse the signal by mechanical stimulation through TRPV4, the calcium influx by mechanical stimulation was investigated. Transient increases in intracellular calcium were detected quickly after force application in HUVE cells treated with control siRNA. […] TRPV4 is also activated by chemical stimulation such as 4α-phorbol 12, 13-didecanoate (4α-PDD).
as §1

Data set [8] deals with binding between β1-integrin and TRPV4. Description: Immunoprecipitation of TRPV4 / β1-integrin binding in HUVE cells after CD98 siRNA knock down. The data set is classed as cell-based, human. The note with it: CD98 siRNA vs control siRNA, co-immunoprecipitation. The text has this:
(§4) The cells were transfected with control or CD98 siRNA. The amount of each component in the total cell lysates is given in the left panel. In the right lanses the cell lysates were immunoprecipitates with rabbit anti-TRPV4 (upper) or mouse anti-β1-integrin antibody (lower).
(§5) CD98 mediates the binding between TRPV4 and β1-integrin at focal adhesion. The question is what the molecular mechanism is by which CD98 mediates the signaling from β1-integrin to TRPV4. CD98 is important for surface expression and clustering of β1-integrin in MCF7 cells (11). Therefore, it was examined whether CD98 mediates the binding between β1-integrin and TRPV4 using siRNA-based knockdown of CD98. […] Thus, CD98 deficiency doesn't affect the formation of focal adhesion.
(§6) siRNA knock down of CD98. RNA interference assay was conducted with human CD98 siRNA duplexes: 5′-[…]-3′ (SEQ ID NO: 21) and 5′-[…]-3′ (SEQ ID NO: 22). Cells were transfected with 50 nM of the siRNA duplexes in Opti-MEM™ (Invitrogen) using silentFect Lipid Reagent for RNAi (BIO-RAD), according to the manufacturer's instructions.
Immunoprecipitation. Cells were extracted in ice-cold TRITON™ buffer (50 mM Tris-HCL, pH 7.4, containing 150 mM NaCl, 1% TRITONX100™, 5 mM EDTA). […] Subsequently the beads were isolated by magnet and washed five times with TRITON™ buffer and then were detected by SDS-PAGE and immunoblotting.

Data set [9] deals with HUVE cells. In words: Localization of TRPV4, CD98, integrin and vinculin at focal adhesions (TIRF / immunofluorescence). The note with it: CD98 siRNA. It is filed as cell-based, human. The text has this: TRPV4 associates with CD98 and β1-integrin at focal adhesion. The terminal 6 amino acid residues at the carboxy end of the β1-integrin cytoplasmic mediate calcium signaling and are required for rapid force induced TRPV4-mediated calcium signaling (10). It was postulated that CD98, which binds to the last 6 carboxy terminal amino acids of β1-integrin, is involved in the TRPV4 activation by β1-integrin using genetically engineered mutant integrin constructs. First, it was confirmed that CD98 binds to integrins through the region of the β1-integrin tail using β1-integrin mutant constructs to transfect HEK293T cells followed by an immunoprecipitation assay. It was also confirmed that TRPV4 also interacts with the same region of β1-integrin using the same β1-integrin mutant constructs (data not shown). To explore the binding between those molecules, whether CD98 and β1-integrin can be co-precipitated from HUVE cell lysates using anti-TRPV4 antibody was determined (FIG. 1A). TRPV4 similarly precipitates with either anti-β1-integrin or anti-CD98 antibody (FIG. 1B). Moreover, it was confirmed that TRPV4 overlapped with CD98 at vinculin positive focal adhesions by Total Internal Reflection Fluorescence (TIRF, data not shown).
siRNA knock down of CD98. RNA interference assay was conducted with human CD98 siRNA duplexes: 5′-[…]-3′ (SEQ ID NO: 21) and 5′-[…]-3′ (SEQ ID NO: 22). […]

The test system of data set [10] is HUVE cells. Description: Scratch wound cell migration assay. It is filed as cell-based, human. To be noted: monolayer HUVE cells, CD98 siRNA vs control siRNA.
Source text: as §5
It was next asked whether CD98 serves to link β1-integrin to TRPV4. […] Thus, CD98 is not required for focal adhesion formation or function. […] Although TRPV4 expression was not decreased, TRPV4 couldn't localize at focal adhesions (data not shown).

Data set [11] has as its system TRPV4. In words: Calcium imaging: calcium influx by mechanical stimulation. The data set is classed as cell-based, human. To be noted: HUVE cells, CD98 siRNA vs control siRNA, Fluo-4, static stretch 20%. The method, then:
as §2, §3, §1

Data set [12] relates to TRPV4. Description: TRPV4 expression in total cell lysates after CD98 knock down. The data set is classed as cell-based, human. To be noted: HUVE cells, CD98 siRNA. Here is the method:
as §4, §6

T1 sequence (Q9HBA0 whole entry): as the sequence (Q9HBA0 whole entry, the tested form may be a part) above

Turning to `O=C(NC1(c2ccccc2)CC1)c1c(CN2CCC(N3CCCCC3)CC2)c(-c2cccc(C(F)(F)F)c2)nc2cc(Br)ccc12` [GSK2193874], the “pulmonary vascular leakage and lung edema development” value in data set [1] was “prevent pulmonary vascular leakage and lung edema development”. Moreover, the cardiogenic pulmonary edema result in data set [2], in [3] and in data set [4] was “prevents cardiogenic pulmonary edema” in each case.

For “high homology domain of CD98: domain of CD98 having the sequence of SEQ ID NO: 1; N-terminal region highly conserved from Drosophila to mammals (KFTGLSKEELLKVAGSPGWVRTRWALLLLFWLGWLGMLAGAVVIIVRAPRC)”, the “β1-integrin binding to TRPV4” value in data set [5] is on record as “decreased”; in [5] (listed as high homology domain), “inhibited”. Also, the “actin rearrangements after mechanical strain” value in [6] (HUVE cells overexpressing high homology domain of CD98 vs vector) is recorded as “didn't show actin rearrangements”.

For `CCCCCCCCCC(=O)O[C@@H]1[C@@H](C)[C@@]2(O)[C@@H](C=C(CO)C[C@@]3(O)C(=O)C(C)=C[C@@H]23)[C@@H]2C(C)(C)[C@]12OC(=O)CCCCCCCCC` [4α-PDD, 4α-phorbol 12, 13-didecanoate], the “intracellular calcium in response to 4α-PDD” value in data set [7] (HUVE cells treated with either control or CD98 siRNA, 4α-PDD 10 μM) is given as “rapid increase in intracellular calcium”.

Consider “CD98 siRNA: human CD98 siRNA duplexes: 5′-GAAUGGUCUGGUGAAGAUC-3′ (SEQ ID NO: 21) and 5′-GAUCUUCACCAGACCAUUC-3′ (SEQ ID NO: 22) (listed as RNA, chemistry not given here; listed as Homo sapiens)”, for which the “association (binding) of TRPV4 and β1-integrin” value in data set [8] is “can't bind to β1-integrin; also recorded: decreased association of TRPV4 and β1-integrin; also recorded: greatly reduced the amount of the binding between β1-integrin and TRPV4”. Also, in data set [9], the “TRPV4 localization at focal adhesions” value was “can't localize at focal adhesion; also recorded: loss of TRPV4 from focal adhesions; also recorded: prevented; also recorded: greatly reduced the amount of both CD98 and TRPV4 within focal adhesions”; the “recruitment of integrins or vinculin to focal adhesions” value is “no effect”. For the same molecule, in [10], the “cell migration in scratch wound assay” value is listed as “normally restored; also recorded: did not interfere with cell migration”. Moreover, the “stress fiber realignment (actin rearrangement) induced by cyclic strain” value in data set [6] (HUVE cells, CD98 siRNA vs control siRNA, 20% uniaxial cyclic strain, 2 hours) is “inhibited; also recorded: abolished”. Besides, the “transient increase in intracellular calcium after force application (mechanical activation of TRPV4)” value in data set [11] is “inhibited; also recorded: didn't show this response; also recorded: inhibits calcium influx”. Besides, the “calcium influx of TRPV4 activation by chemical treatment” value in [7] (HUVE cells, CD98 siRNA vs control siRNA) is recorded as “not inhibited; also recorded: not by chemical activators”. The TRPV4 expression entry in [12] was “not decreased”.

The record behind these values is patent publication US11236147B2, “Methods and compositions for the inhibition of TRPV4” (CHILDREN'S MEDICAL CENTER CORPORATION, priority 2013, dated 2022).
